Measurements from patent US20240270760A1, “GLYCERIC ACID, GLYCERATE, AND COMPOSITION THEREOF” (INNER MONGOLIA KINGDOMWAY PHARMACEUTICAL CO., LTD., priority 2023, published 2024).

How the values were obtained:
Alcohol metabolism = Alcohol metabolism test: ethanol content in venous blood after composition and ethanol feeding; assay type: in vivo, mice; details: for Percentage decrease compared to comparative group: decrease of venous blood ethanol content versus physiological saline group (75.0 mg/100 mL); for Ethanol content: venous blood 1 hour after 2 mL of 5% edible ethanol, 2 mL composition solution (4.5 g in 15 mL physiological saline) fed 1 hour before ethanol, 7 animals per group, GC-FID
Protocol: The test was divided into test groups and comparative groups. Each group included 7 healthy animals (e.g., mice). The healthy animals were fed in the laboratory for 10 days to adapt to the test environment, and then fasting was maintained 12 hours before the start of the test.
4.5 g of the compositions obtained in preparation examples 10-31 and comparative examples 1-8 were respectively dissolved in 15 mL of physiological saline to prepare composition solutions. The animals in the test groups were fed with 2 mL of the composition solution respectively, and the animals in the comparative group were fed with the same dose of normal saline. 1 hour later, the animals in the test groups and the comparative groups were fed with 2 mL of 5% edible ethanol, respectively. 1 hour later, the venous blood of the animals was collected. The ethanol content in the venous blood was detected by a gas chromatography-hydrogen flame ionization detector.

[1] = Dissolution of calcium glycerate forms in water at 37±0.2° C. (FIG. 9); assay type: physicochemical; details: comparison between forms

Row | Compound | Percentage decrease compared to comparative group (Alcohol metabolism) [%] | Ethanol content (Alcohol metabolism) [mg/100 mL] | dissolution rate [1]
1 | O=C(O)[C@H](O)CO [compound 1, D-glyceric acid] | 14.8 | 63.9 | –
2 | O=C(O)[C@H](O)CO [compound 5, D-glyceric acid] | 15.2 | 63.6 | –
3 | O=C([O][Ca][O]C(=O)[C@H](O)CO)[C@H](O)CO [crystalline Form II, calcium D-glycerate] | – | – | faster than that of crystalline Form I
